Like-named read-outs stand apart in the source and are kept apart here.
Columns and labels:
bone marrow progenitors = conditions: for CFU-C/10⁴ cells (No. of bone marrow colonies) / R.C.S. (Relative Cell Survival): 5FU lethal dose (7.5mg) alone; for R.C.S. (Relative Cell Survival) / R.C.S.: saline = 1.0
Method: The DPPE and saline were administered 90 minutes prior to the 5FU. Bone marrow cell counts were made at 24 hours and 48 hours post administration.
Experiments paralleling those described above with 5FU were carried out employing a lethal dose of adriamycin (20mg/kg).

C-3 fibrosarcoma cells = test: In vivo augmentation of adriamycin anti-tumor activity in a murine sarcoma model; parameters: species or system C3H mice; conditions: intraperitoneally day 1, followed 60 days
Method: C-3 fibrosarcoma cells (3 x 10⁵) were injected into the left gluteal region of C3H mice on day 0. On day 1, the mice were provided with treatment by a combination of DPPE and adriamycin, administered intraperitoneally. The DPPE was administered 60 minutes prior to administration of the adriamycin. Mice also were administered with saline, DPPE alone and adriamycin alone.
Animals in the experiments (n=12) were followed for 60 days. At the end of the experimental period, those animals free of palpable tumors were considered cured.

B16 melanoma cells = test: In vivo augmentation of BCNU anti-tumor activity in a B16 melanoma lung metastasis model; parameters: species or system C57Bl mice; conditions: for (% control) of lung metastases / Numbers of lung metastases / Median Survival: intraperitoneal day 1; for (% control) of lung metastases / Numbers of lung metastases: lungs at day 14; for Numbers of lung metastases: saline 241; for Median Survival: saline 19; for Size of lung metastases: Macro means visually determined, Micro means microscopically only
Method: 5 x 10⁴ B16 melanoma cells were injected intravenously into the tail vein of C57Bl mice at day 0. The mice were treated with either saline, 32mg/kg of DPPE, 1mg of BCNU or a combination of 32mg/kg of DPPE and 1mg of BCNU, by intraperitoneal injection on day 1. The DPPE was administered 60 minutes before the BCNU.
In each group, six of the twelve animals were sacrificed at day 14 and lungs were removed for determination of metastasis. The remaining six animals were followed to death. The numbers and size of the lung metastases were determined by visual or microscope count.

DBA/2 mice = test: In vivo host cytoprotection from a lethal dose of adriamycin; conditions: DPPE 2 mg/kg 1 hour (n=12) or 15 minutes (n=6) prior to 15 mg/kg of adriamycin, after 30 days
Method: Saline or DPPE (2 mg/kg) were administered to DBA/2 mice 1 hour (n=12) or 15 minutes (n=6) prior to administration of 15 mg/kg of adriamycin. The number of survivors after 30 days was determined.

[1] = tested on: Spleen cells from BALB/C mice; test: Thymidine incorporation into DNA of Concanavalin A-stimulated lymphocytes; type: cell-based
Method: Spleen cells from BALB/C mice were stimulated with Concanavalin A (5 µg/ml) for thymidine incorporation. The cells then were treated with varying does of DPPE and the level of thymidine incorporated was determined. The results were plotted graphically and appear as Figure 1.
The experiment was repeated using 2.5 µg/ml of Concanavalin A in place of 5 µg/ml and 2% fetal calf serum in place of 10%. The results obtained are illustrated in Figure 2.

[2] = tested on: virally-infected non-senescing transformed spleen-derived lymphocytes (S-10); test: Thymidine incorporation and cytotoxicity in virally-infected transformed lymphocytes; type: cell-based, BALB/C origin
Method: The experiment of Example VI was repeated employing virally-infected non-senescing transformed spleen-derived lymphocytes (S-10) also of BALB/C origin with 0.25 nM of ³H-thymidine added. The results were plotted graphically and appear as Figures 3 and 4 respectively. As may be seen therein, in contrast to Figures 1 and 2, 25 µM of DPPE caused approximately 50% cytotoxicity to the virally-infected cells. When adjusted for cell number, thymidine incorporation increased at cytotoxic concentrations of DPPE (10 to 25 µM).

[3] = tested on: human breast cancer cell (MCF-7); test: Thymidine incorporation and cytotoxicity in breast cancer cells; type: cell-based; conditions: 0.25 nM of thymidine, Figure 5
Method: The experiment was again repeated using human breast cancer cell (MCF-7) with 0.25 nM of thymidine added. The results were plotted graphically and appear as Figure 5.

[4] = tested on: patients with advanced cancer; test: Clinical study in patients with advanced cancer
Method: A clinical study was carried out with 14 patients with advanced cancer. • (a) DPPE alone was administered to patients to determine a safe dose range in humans.

prostaglandin (PG)I₂ = test: Prostaglandin level in the gut after DPPE treatment; type: in vivo
Source text: In addition, the antagonism results in an increase in the levels of prostaglandins (natural substances which are known to protect tissues from various injurious agents) in the tissue. For example, DPPE treatment results in an increase by 500% in prostaglandin (PG)I₂, a protective prostaglandin, in the gut.

certain B cells = test: Interleukin-2 stimulated antibody formation in B cells; type: cell-based
Source text: As with bone marrow cells, the treatment of normal proliferating lymphocytes (immune cells), according to the invention, results in a dose-dependent blocking of DNA synthesis and a shut-down of these cells without causing cytotoxicity. The antagonist has an effect on both T-lymphocytes and B-lymphocytes in the immune system. […] DPPE also blocks the stimulation of antibody formation by the mediator interleukin-2 in certain B cells, resulting is a decrease in antibody formation.

ulcer formation = conditions: in the presence of noxious agents, such as alcohol and cysteamine; see US-A-4,829,068; cited from earlier work
malignant cells = conditions: as described in US-A- No. 4,803,227; cited from earlier work
B16f10 melanoma cells = test: In vivo augmentation of daunorubicin anti-tumor activity in a B16 melanoma lung metastasis model; parameters: species or system mice; conditions: Daunorubicin 12.5 mg/kg alone, 24 hours after cells
Method: The procedure of Example III was repeated employing daunorubicin in place of BCNV. Groups of six mice were injected with B16f10 melanoma cells and 24 hours later received saline, 4 mg/kg of DPPE alone, a non-lethal dose of daunorubicin alone (12.5 mg/kg) or DPPE (4, 25 or 50 mg/kg) one hour prior to daunorubicin (12.5 mg/kg). All animals were followed to death or for 60-days post injection, and sacrificed for lung metastases.

[5] = administered five hours or more prior to the chemotherapeutic agent; cited from earlier work
[6] = Adriamycin lethal dose (20mg/kg) alone, 24h
[7] = Adriamycin lethal dose (20mg/kg) alone, 48h
[8] = 25 µM DPPE, Concanavalin A 5 µg/ml, 10% fetal calf serum, Figure 1
[9] = DPPE 0.2 mg/kg daily, patients treated with Adriamycin (60 mg/m²)

Compound: O=c1[nH]cc(F)c(=O)[nH]1 [5FU, 5-fluorouracil]
- CFU-C/10⁴ cells (No. of bone marrow colonies) (bone marrow progenitors; 24h): 0.2 CFU-C/10⁴ cells
- R.C.S. (Relative Cell Survival) (bone marrow progenitors; 24h): 0.006
- CFU-C/10⁴ cells (No. of bone marrow colonies) (bone marrow progenitors; 48h): 0.09 CFU-C/10⁴ cells
- R.C.S. (Relative Cell Survival) (bone marrow progenitors; 48h): 0.002

Compound: COc1cccc2c1C(=O)c1c(O)c3c(c(O)c1C2=O)C[C@@](O)(C(=O)CO)C[C@@H]3O[C@H]1C[C@H](N)[C@H](O)[C@H](C)O1 [Adriamycin, doxorubicin]
- Number of Mice Tumor-Free (n=12) (C-3 fibrosarcoma cells; Adriamycin 2mg/kg alone): 0
- CFU-C/10⁴ cells (bone marrow progenitors; [6]): 1.8 CFU-C/10⁴ cells
- R.C.S. (bone marrow progenitors; [6]): 0.04
- CFU-C/10⁴ cells (bone marrow progenitors; [7]): 0.65 CFU-C/10⁴ cells
- R.C.S. (bone marrow progenitors; [7]): 0.006

Compound: O=NN(CCCl)C(=O)NCCCl [BCNU, reference compound]
- (% control) of lung metastases (B16 melanoma cells; BCNU 1mg alone): 60%
- Numbers of lung metastases (B16 melanoma cells; BCNU 1mg alone): 144
- Median Survival (B16 melanoma cells; BCNU 1mg alone): 24 days
- Size of lung metastases (B16 melanoma cells; BCNU 1mg alone): All Macro

Compound: CCN(CC)CCOc1ccc(Cc2ccccc2)cc1 [DPPE, N,N-diethyl-2-[4-(phenylmethyl)-phenoxy]ethanamine]
- Number of Mice Tumor-Free (n=12) (C-3 fibrosarcoma cells; DPPE 50mg/kg alone): 0
- CFU-C/10⁴ cells (bone marrow progenitors; DPPE 4mg/kg alone, 24h): 42.3 CFU-C/10⁴ cells
- R.C.S. (bone marrow progenitors; DPPE 4mg/kg alone, 24h): 0.97
- CFU-C/10⁴ cells (bone marrow progenitors; DPPE 4mg/kg alone, 48h): 41.3 CFU-C/10⁴ cells
- R.C.S. (bone marrow progenitors; DPPE 4mg/kg alone, 48h): 0.97
- (% control) of lung metastases (B16 melanoma cells; DPPE 32mg/kg alone): 91%
- Numbers of lung metastases (B16 melanoma cells; DPPE 32mg/kg alone): 219
- Median Survival (B16 melanoma cells; DPPE 32mg/kg alone): 21 days
- Size of lung metastases (B16 melanoma cells; DPPE 32mg/kg alone): All Macro
- Number of Survivors (DBA/2 mice; saline group 4/12): 13/18
- Number of Survivors (percent) (DBA/2 mice; saline group 33%): 72%
- cell survival [1, 8]: does not adversely affect
- thymidine incorporation into DNA [1, 8]: completely blocks
- concentrations of DPPE which inhibited DNA synthesis ([1]; Concanavalin A 2.5 µg/ml, 2% fetal calf serum, Figure 2): 5 µm
- cytotoxicity ([1]; at 5 µm DPPE, Concanavalin A 2.5 µg/ml, 2% fetal calf serum, Figure 2): no significant cytotoxicity
- proliferation of T-lymphocytes ([1]; in the presence of Concanavalin A): completely antagonize
- cytotoxicity to the virally-infected cells ([2]; 25 µM of DPPE, S-10 cells, Figures 3 and 4): approximately 50%
- thymidine incorporation adjusted for cell number ([2]; at cytotoxic concentrations of DPPE (10 to 25 µM), 0.25 nM ³H-thymidine): increased
- cytotoxicity and thymidine incorporation compared with S-10 cells [3]: Analogous results
- mouth ulceration ([4]; 72-hour infusion of low dose DPPE, one patient): prevented
- acute and delayed gastrointestinal side effects of Adriamycin ([4]; DPPE 0.2 mg/kg daily as a 72-hour infusion, Adriamycin 60 mg/m², four patients, two treatments each): block completely
- anti-emetic effect ([4]; DPPE 0.2 mg/kg daily, 24-hour infusion, first 24 to 48 hours following Adriamycin, delayed nausea, vomiting and/or anorexia at 72 or 96 hours in many patients): effective anti-emetic therapy
- amelioration of nausea, vomiting, anorexia and stomatitis [4, 9]: over 90%
- patients in whom nausea, vomiting, anorexia and stomatitis were prevented or ameliorated [4, 9]: 6/6
- toxicity ([4]; DPPE alone, 6 mg/kg administered IV over 2 hours): significant toxicity was absent
- highest non-toxic dosage ([4]; DPPE alone, given intravenously over a one-hour period): 4 mg/kg
- effect on platelets, hemoglobin or biochemistry ([4]; human, in vivo): No significant effect
- CNS toxicity ([4]; human, in vivo, 6 mg/kg): dose limiting
- drop in body core temperature ([4]; human, in vivo, 6 mg/kg): 1-2 °C
- threshold for CNS toxicity ([4]; human, in vivo, 1 h): 240 mg/M²
- changes in biochemistries or blood counts ([4]; human, in vivo, iv, 0.2 mg/kg): not to cause any significant changes
- clinical side effects ([4]; human, in vivo, iv, 0.2 mg/kg): entirely without clinical side effects
- antiemetic effect against Adriamycin ([4]; single iv doses of DPPE (1, 2, 4 mg/kg) given over 1 hour): significantly antiemetic
- increase in prostaglandin (PG)I₂ in the gut (prostaglandin (PG)I₂): 500%
- stimulation of antibody formation by interleukin-2 (certain B cells): blocks
- threshold for CNS toxicity (mice): 240 mg/M²
- ulcer formation (ulcer formation): completely block
- effect on malignant cells in vitro (malignant cells): damages and/or kills

Compound: COc1cccc2c1C(=O)c1c(O)c3c(c(O)c1C2=O)C[C@@](O)(C(C)=O)C[C@@H]3O[C@H]1C[C@H](N)[C@H](O)[C@H](C)O1 [Daunorubicin, daunorubicin]
- No. Cures (n=6) (B16f10 melanoma cells; followed 60 days): 0
- Median Survival (B16f10 melanoma cells; followed to death or 60 days, saline 17): 25 days

Compound: N[C@H](CO)Cc1c[nH]cn1 [L-histidinol]
- effective doses [5]: approximately 1000 mg/kg of tissue

From patent EP0563127B1, “IMPROVED TREATMENT METHOD FOR CANCER” (priority 1990, dated 1992)
